From patent publication US12195512B2, “Affinity ligands for antibody Fc region” (Univerza v Ljubljani, priority 2018, dated 2025)
No end group written: not given here.

Assays:
[1] = tested on: human IgG subclasses (IgG1, IgG2, IgG3 and IgG4) and human intravenous immunoglobulins; test: assay akin to ELISA with (peptide)4 SA-HRP complexes on human IgGs; format: binding; settings: for binding of biotinylated synthetic peptides to human IgGs: C-terminal linker SEQ ID NO: 181 biotinylated, tetrameric (peptide)4 SA-HRP complexes; for binding compared with the parental peptide SEQ ID NO: 2: biotinylated synthetic peptides, (peptide)4 SA-HRP complexes, human IgGs
Experimental: (§1) The binding activity of the described biotinylated synthetic peptides to different immunoglobulins was evaluated using an assay akin to ELISA. Wells were coated with the different subclasses of human IgGs or human intravenous immunoglobulins. All the wells were blocked with BSA. A biotinylated synthetic peptide and horseradish peroxidase (HRP)-conjugated streptavidin (SA-HRP) were mixed in advance at molar ratio of 4:1 to formulate tetrameric (peptide)4 SA-HRP complexes and then the mixtures were added to individual wells. After washing, the (peptide)4 SA-HRP complexes were detected with TMB solution.

[2] = tested on: human IgG Fc fragment and native human IgGs; test: pull-down assay with peptide-coated streptavidin paramagnetic beads; settings: versus parent peptide SEQ ID NO: 2
Experimental: Selected peptides (SEQ ID NO: 2, SEQ ID NO: 30, and SEQ ID NO: 26) with biotin attached via epsilon-amino group of C-terminal amidated lysine in added linker SEQ ID NO: 181 were synthesized and coupled to streptavidin-coated paramagnetic beads. The same paramagnetic beads without addition of peptide and the same paramagnetic beads coupled with unrelated biotinylated peptide SEQ. ID 185 were used as negative controls. First, the Fc fragment of human antibodies (2 μg) was spiked into PBS and incubated with peptide-coated paramagnetic beads. The beads were then pelleted, washed with 0.1% PBST, and the bound material was eluted with acidic buffer (0.2 M glycine/HCl, pH 2.2). The low pH eluate was immediately neutralized with 1M Tris/HCl, pH 9.1. The eluates obtained from pull-down assay were analyzed by DotBlot assay and Western blotting using polyclonal goat anti-human IgG (H+L) HRP conjugate for detection (results not shown). Equivalent pull-down assay was carried out also from serum free DMEM growth medium spiked with human Fc fragment (2 μg) with peptide SEQ ID NO: 2 (FIG. 11). Additionally, the pull-down assay was also made from intact human sera. The presence of human IgGs in the eluate was confirmed by Coomassie blue staining (FIG. 13) and Western blot analysis (FIG. 12) using HRP-conjugated goat anti-human (H+L) antibodies (BioRad).

human IgG Fc fragment [3] = test: phage ELISA of phage-displayed peptides on human Fc fragment; format: binding; settings: peptide displayed on phage; absorbance at 450 nm
Description: Three different phage display libraries were subjected to separate panning processes according to the protocol known to one skilled in the art. Various Fc-binding peptides were selected by targeting biotin-conjugated human Fc fragment prepared by random biotinylation of amine residues using EZ-Link™ Sulfo-NHS-SS-Biotin (Thermo Fisher Scientific, Rockford, IL, USA). After three rounds of affinity selection, individual clones were picked for phage Enzyme Linked Immuno-Sorbent Assay (ELISA) in order to evaluate their Fc fragment binding ability.
(§2) Wells of a 96-well microplate (Nunc, Maxisorp) were either coated with human Fc fragment solution or streptavidin as negative control. The wells were blocked with BSA and contacted with amplified population of each individual clone. Bound phages were detected by the addition of horseradish peroxidase (HRP)-conjugated anti-M13 monoclonal antibodies using the chromogenic substrate (3,3′,5,5′-tetramethylbenzidine (TMB)) solution, and absorbance at 450 nm was measured.
The experiment was performed in triplicate.
In order to investigate the contribution of individual amino acid residues of the truncated peptide SEQ ID NO: 2 to the Fc binding, alanine scanning strategy was carried out. […] However, we determined specific positions where alanine substitutions were well tolerated in terms of preserving binding activity. […]

human IgG Fc fragment [4] = test: competitive phage FLISA with Staphylococcal protein A; format: binding
Experimental: SpA is known to interact specifically with the region at the CH2-CH3 interface of immunoglobulins. Wells of the black Nunc MaxiSorp microtiter plate were either coated with human IgG Fc fragment or left uncoated (controls). Wells were blocked with BSA and contacted with purified fluorescein-labelled phage clone (the labelling procedure was adapted from the instructions of FITC manufacturer, Sigma-Aldrich). Phage was allowed to compete for the Fc binding with SpA in concentrations 1 μM, 100 nM or 10 nM. After 1 h-incubation at room temperature, the content was discarded and wells were washed with 0.1% PBST and finally filled with PBS. Fluorescence intensities in individual wells were measured at 510 nm upon excitation at 485 nm. The experiment was performed in triplicate.

[5] = tested on: human IgGs of different subclasses (IgG1, IgG2, IgG3 and IgG4); test: phage ELISA on subclasses of native human IgGs; format: binding; settings: peptide displayed on phage as P3 fusion
Experimental: as §2
(§3) The binding activity of phage clone displaying the minimized peptide SEQ ID NO: 2, was further evaluated by phage ELISA (as described above) using different subclasses of native human IgGs and different therapeutic monoclonal antibodies. BSA, avidin and SA were used as targets in negative control wells.

[6] = tested on: therapeutic monoclonal antibodies; test: phage ELISA on therapeutic monoclonal antibodies; format: binding; settings: peptide displayed on phage as P3 fusion
Experimental: as §2, §3

BSA, avidin and SA = test: phage ELISA on negative control targets; format: binding; settings: peptide displayed on phage
Experimental: as §2, §3

[7] = tested on: IgGs of different species (mouse, donkey, rabbit and sheep); test: assay akin to ELISA with peptide SA-HRP complexes on IgGs of animal species; format: binding; settings: biotinylated synthetic peptide complexed to SA-HRP, sheep IgG
Experimental: as §1
Additionally, the binding activity of the synthetic peptide SEQ ID NO: 2 to immunoglobulins of different animal species (mouse, rabbit, donkey, and sheep) was evaluated by an assay akin to ELISA essentially as described above. Peptides SEQ ID NO: 184 and SEQ ID NO: 185 represent two control biotin-labelled synthetic peptides with unrelated amino acids sequences.

human Fc fragment = test: surface plasmon resonance (BIAcore X100), peptide immobilized via streptavidin; format: binding; settings: 25° C; Fc 10-160 nM, single cycle
Experimental: Interaction between the synthetic biotinylated peptide ligand with amino acid sequence identical to SEQ ID NO: 2 and human Fc fragment was analyzed by surface plasmon resonance (SPR) using BIAcoreX100 (BIAcore) at 25° C. Biotinylated synthetic peptide of the present invention was immobilized to the matrix indirectly through streptavidin. Streptavidin (SA) was immobilized to the surface of CM-5 chip through random amine coupling according to the manufacturer's recommendations to achieve a stable response corresponding to approximately 4000 resonance units. The first cell surface was prior activated and deactivated and used as a reference cell during injections. After successful covalent immobilization of SA to dextran matrix via amino groups, a 120 nM solution (pH 5) of biotinylated synthetic peptide SEQ ID NO: 2 was injected over a sensor chip SA to immobilize the peptide onto the chip. The amount of immobilized peptide was adjusted to the stable response corresponding to approximately 200 RU. Subsequently, solutions of human Fc fragment (the analyte) of various concentrations (10 nM, 20 nM, 40 nM, 80 nM, and 160 nM) in running buffer (0.005% P20 in PBS) were injected at a flow rate of 10 μL/min at through flow cells in a manner known as single cycle. Binding reaction between human Fc fragment and the peptide was recorded. […]

For “GSYWYDVWF (not fully specified (C-terminus)) [SEQ ID NO: 26]”, the “binding of biotinylated synthetic peptides to human IgGs” value (“binding … to human IgGs” below) [1] was “specifically bound to human IgGs”, the “binding compared with the parental peptide SEQ ID NO: 2” value [1] was “significantly increased binding” and the “trapping efficiency in pull-down assay” value [2] was “significantly higher than the parent peptide SEQ ID NO: 2”.
With “GSYWYEVWF (not fully specified (C-terminus)) [SEQ ID NO: 30]” the “binding … to human IgGs” value [1] was “specifically bound to human IgGs” and the “binding compared with the parental peptide SEQ ID NO: 2” value [1] was “significantly increased binding”.
With AGNGSYWYQVWF [SEQ ID NO: 1] the “relative binding of phage clones to human IgG Fc (phage ELISA)” value (human IgG Fc fragment [3]) was “strongest binding phage clone” and the “binding site on Fc fragment relative to SpA” value (human IgG Fc fragment [4]; inferred from competition with SpA) was “at least partially overlap”.
“SpA: Staphylococcal protein A; cell wall constituent protein derived from Staphylococcal aureus [reference compound]” was tested, and the “inhibition of binding of FITC-labelled phage clone SEQ ID NO: 1 to immobilized human IgG Fc” value (human IgG Fc fragment [4]; SpA 1 μM, 100 nM or 10 nM, 1 h room temperature) was “the higher the concentration of SpA added, the more effectively is binding of the phage clone to human IgG Fc fragment inhibited”.
“GSYWYQVWF (H-GSYWYQVWF; not fully specified (C-terminus)) [SEQ ID NO: 2]” was tested, and the “binding to human IgG subclasses (phage ELISA)” value [5] was “strongly bound”, the “binding to tested therapeutic monoclonal antibodies (phage ELISA)” value [6] was “strongly bound” and the “binding to negative controls (phage ELISA)” value (BSA, avidin and SA) was “no significant binding”. For the same substance, the “binding … to human IgGs” value [1] was “specifically bound to human IgGs”, the “binding to IgGs of different animal species” value [7] was “specifically bound” and the “binding of human Fc to immobilized peptide (SPR)” value (human Fc fragment) was “exhibited binding to human Fc”. For the same substance, the “dissociation rate (SPR)” value (human Fc fragment) was “slow”.
